The values that follow come from publication PMC8983599 (Cancer Discovery, 2022).

Data set [1] relates to Saa3 expression in mouse primary osteoblasts. Kind of data set: Saa3 mRNA in primary differentiated mouse calvaria osteoblasts. The conditions noted are these: 25 nmol/L, 24 hours. Format: cell-based.
Data set [2] deals with patient-derived AML cells. In words: PDX in NSG mice, combination therapy. The format is in vivo. The conditions noted are these: day 22 after initiating therapy.
A further data set deals with 5-HT1B receptor (HTR1B) (Homo sapiens, UniProt P28222). In words: GloSensor Gi/o-mediated cAMP inhibition assay in transfected HEK293T cells. Format: cell-based.
5-HT1B receptor (HTR1B), sequence (P28222 whole entry): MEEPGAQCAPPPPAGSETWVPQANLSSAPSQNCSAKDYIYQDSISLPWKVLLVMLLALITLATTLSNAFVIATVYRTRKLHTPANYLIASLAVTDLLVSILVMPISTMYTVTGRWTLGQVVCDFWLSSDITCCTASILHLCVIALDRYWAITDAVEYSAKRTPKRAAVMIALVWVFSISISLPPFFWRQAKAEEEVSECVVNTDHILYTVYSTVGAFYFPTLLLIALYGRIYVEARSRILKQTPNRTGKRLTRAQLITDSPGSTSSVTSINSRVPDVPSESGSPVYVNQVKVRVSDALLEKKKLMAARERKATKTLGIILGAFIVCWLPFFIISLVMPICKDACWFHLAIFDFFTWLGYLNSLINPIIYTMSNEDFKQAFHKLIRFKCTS
Data set [3] concerns leukemic blasts (hCD45+ hCD33+). In words: Kyn injection in low AML burden PDX mice. The format is in vivo, NSGS mice. As to conditions: Kyn 20mg/kg for 1 week.
For another data set, the system named is MLL/AF9 AML cells. Format: in vivo, mouse.
The target in a further data set is mouse HTR1B (Mus musculus, UniProt P28334). As to conditions: Fig. S1M.
mouse HTR1B, sequence (P28334 whole entry): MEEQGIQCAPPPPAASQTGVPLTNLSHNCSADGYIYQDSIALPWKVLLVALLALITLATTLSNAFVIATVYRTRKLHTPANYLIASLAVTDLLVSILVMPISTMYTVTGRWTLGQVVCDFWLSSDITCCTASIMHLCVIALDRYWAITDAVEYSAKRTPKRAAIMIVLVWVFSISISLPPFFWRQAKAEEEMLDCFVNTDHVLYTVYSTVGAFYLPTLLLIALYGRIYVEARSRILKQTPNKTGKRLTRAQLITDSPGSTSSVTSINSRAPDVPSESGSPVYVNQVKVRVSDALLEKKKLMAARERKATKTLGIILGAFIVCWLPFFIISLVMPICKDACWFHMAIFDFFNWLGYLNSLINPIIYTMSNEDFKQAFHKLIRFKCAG
The test system of data set [4] is Cyclins D1, D2, and E1 (targets of serotonin-HTR1B signaling). In words: Bone. The format is in vivo, mouse. The conditions noted are these: SB9-treated mice.
The next data set concerns the target murine HTR1B receptor (Mus musculus, UniProt P28334). In words: [3H]-Kyn binding competition, Htr1b-overexpressing HEK293T membranes. As to conditions: SB9 at ∼90 μmol/L, equal to the concentration administered in vivo.
Data set [5] in a line: Systemic toxicity of epacadostat diet in WT mice. Format: in vivo, mouse. The conditions noted are these: epacadostat ad libitum diet 0.8 g/kg.
For data set [6], the system named is Kyn/Trp ratio (indicator of IDO1 activity). Kind of data set: Serum Kyn and Trp levels. The format is in vivo, mouse.
Data set [7] has as its system patient-derived AML cells. In words: Patient-derived AML xenograft. Format: in vivo, NSGS mice. As to conditions: epacadostat 300 mg/kg daily gavage. Background: Xenograft models place foreign cells or tissue in a host animal.
Another data set concerns Ido1. In words: CRISPR/Cas9-mediated Ido1 targeting of primary murine MLL/AF9 cells. The format is cell-based, mouse. As to conditions: Ido1 exon 3.
The next data set deals with THP-1 and OCI-AML3 cells. In words: Proliferation of human AML cell lines exposed to SAA1. The conditions noted are these: SAA1 1 μg/mL, 24–72 hours, versus vehicle. Format: cell-based.
Data set [8] has as its system lineage-depleted AML and MDS BM-MNCs. The format is cell-based, human. As to conditions: SAA1 5 μg/mL, 24 hours.
Data set [9] relates to IDO1 expression in OCI-AML3 cells. In words: IDO1 mRNA in human AML/MDS cell lines exposed to recombinant proteins. The format is cell-based.
Data set [10] deals with total human BM cells isolated from PDX mice. Kind of data set: Ex vivo human BM cells isolated from PDX mice. Format: cell-based. As to conditions: SAA1 1 μg/mL, 24 hours.
In data set [11] the test system is Ido1 expression in WEHI-3B cells. Kind of data set: Ido1 mRNA in WEHI-3B cells exposed to recombinant SAA. Format: cell-based, mouse. The conditions noted are these: exposed overnight.
The subject of data set [12] is AHR target genes (CYP1A1, CYP1A2). Kind of data set: AHR target gene mRNA in human AML and MDS cells exposed to SAA1. Format: cell-based. As to conditions: SAA1 1µg/ml o/n.
For data set [13], the system named is leukemic blasts (hCD45+CD33+). The format is in vivo, NSGS mice.
The subject of the next data set is WEHI-3B cells. Kind of data set: Proliferation of mouse AML cell line exposed to SAA3. The conditions noted are these: SAA3 1 μg/mL, 24–72 hours, versus vehicle. The format is cell-based.
The mark [14] stands for this setting: SAA1 i.v., 2- and 8-day treatments.

By EC50 is commonly meant the concentration that produces a half-maximal response. A higher EC50 goes with lower potency in that assay.

Where two headings read alike, the source gives them in different places.

murine HTR1B receptor, sequence (P28334 whole entry): as above

Turning to `NCCc1c[nH]c2ccc(O)cc12` [5-HT, 5-hydroxytryptamine, reference compound], the “Saa3 expression in mouse osteoblasts (Htr1b+/+)” value in data set [1] is “had no effect”.

For the molecule `Nc1ccn([C@@H]2O[C@H](CO)[C@@H](O)[C@@H]2O)c(=O)n1` [Ara-C, 1-β-D-arabinofuranosylcytosine], in data set [2], the “effect on leukemic burden in SP relative to BM” value is “more sustained in the SP than in BM”.

Turning to `Nc1ccccc1C(=O)CC(N)C(=O)O` (stereo not drawn) [Kyn, kynurenine], the “mode of action on Gi/o-mediated cAMP production through HTR1B” value at 5-HT1B receptor (HTR1B) is listed as “partial agonist”. The EC50 at 5-HT1B receptor (HTR1B) (EC50 (nmol/L), cAMP Gi agonist, human HTR1B) was about 772 nM. In data set [3], the “AML burden in BM and SP” value was “AML burden increased in BM and SP”; the “proliferative capacity of the leukemic blasts” value is “increases”. Also, in data set [3] (low AML burden PDX mice), the “serum SAA3” value was “increases serum SAA3”. Besides, in data set [1], the “Saa3 expression in Htr1b−/− primary osteoblasts” value is recorded as “failed to upregulate Saa3 expression” and the “Saa3 expression in mouse osteoblasts (Htr1b+/+)” value is recorded as “potently upregulated Saa3 expression”.

Turning to `Cc1nc(-c2ccc(-c3ccc(C(=O)N4CCc5cc6c(cc54)C4(CCN(C)CC4)CO6)cc3)c(C)c2)no1` [SB224289, 1′-methyl-5-[[2′-methyl-4“-(5-methyl-1,2,4-oxadiazol-3-yl)biphenyl-4-yl]carbonyl]-2,3,6,7-tetrahydro-spiro[furo[2,3-f]indole-3,4-”piperidine]], the “protection of MLL/AF9-injected mice” value with MLL/AF9 AML cells (SB9 5 mg/kg i.p. daily from 1 week after leukemia injection) is listed as “only partially protected”. Further, the survival entry with MLL/AF9 AML cells (SB9 5 mg/kg i.p. daily versus vehicle) is “significant increase in survival”. The “5-HT binding to HTR1B at the administered dose” value at mouse HTR1B is on record as “effective in abolishing 5-HT binding to HTR1B”. Further, in data set [4], the “bone expression of Cyclins D1, D2, and E1” value was “upregulated”. Also, at murine HTR1B receptor, the “effect on Kyn binding to the murine HTR1B receptor” value was “no effect”.

As to `NS(=O)(=O)NCCNc1nonc1C(=NO)Nc1ccc(F)c(Br)c1` [epacadostat], in the data set with MLL/AF9 AML cells (epacadostat diet 0.8 g/kg), the leukemia progression entry was “tendency toward a slower leukemia progression” and the survival result is recorded as “slight—yet significant—increase in survival”. Besides, the AML burden entry with MLL/AF9 AML cells (epacadostat diet 1.6 g/kg) is on record as “significant delay in AML burden”. Also, the survival result in the data set on MLL/AF9 AML cells (epacadostat diet 1.6 g/kg, compared with the lower dose) is “significantly prolonged survival”. In data set [5], the systemic toxicity entry is given as “did not show any obvious systemic toxicity”. The “effect on leukemic burden in SP relative to BM” value in data set [2] is “more pronounced effect in the SP”. Moreover, the “reduction in serum Kyn levels” value in [6] (MLL/AF9 mice, epacadostat diet 1.6 g/kg) is reported as 35%. In data set [6] (WT mice, epacadostat ad libitum diet 0.8 g/kg), the “reduction in basal (no leukemia) circulating Kyn/Trp levels” value is 54%. Further, in [6] (epacadostat diet 0.8 g/kg), the “systemic Kyn/Trp levels in MLL/AF9 leukemic mice” value was “did not reduce the 1.5-fold increase in systemic Kyn/Trp levels”. In data set [7], the “G0–G1 and G2–M populations of leukemic blasts” value is reported as “remained unchanged”; the leukemic blast apoptosis entry is given as “increased leukemic blast apoptosis”; the “proliferation of leukemic blasts (hCD45+CD33+), in vivo cell cycle” value is reported as “less proliferative”. The “reduction in Kyn/Trp levels in blood” value in [7] (12-day regimen) was about 20%. In addition, the “reduction in AML BM burden” value in [7] (versus vehicle) is reported as about 20%.

“sgRNA#196: chemically modified mouse sgRNA targeting Ido1 exon 3: CUGCCCACACUGAGCACGGA (chemically modified, pattern not given here)” had a deletion efficiency in the data set on Ido1 of about 40%.

B1: SAA1: recombinant human acute-phase protein serum amyloid A1 (PeproTech) (protein, UniProt P0DJI8 19-122, looked up)
Serum amyloid A-1 protein: RSFFSFLGEAFDGARDMWRAYSDMREANYIGSDKYFHARGNYDAAKRGPGGAWAAEVITDARENIQRFFGHGAEDSLADQAANEWGRSGKDPNHFRPAGLPEKY
Take B1: the “proliferation of human AML cell lines” value with THP-1 and OCI-AML3 cells is listed as “increased proliferation”. Moreover, in data set [8], the “IDO1 mRNA levels in patient-derived BM-MNCs” value is recorded as “increased”; the “proliferation of lineage-depleted AML and MDS BM-MNCs from patient aspirates” value is listed as “promoted proliferation”. For the same molecule, the “IDO1 upregulation in other cell lines” value in data set [9] (Fig. S4O, exposed o/n to SAA1) was “observed across several human AML cell lines as well as the MDS-L cell line”. Moreover, the “IDO1 expression in OCI-AML3 cells” value in data set [9] (overnight, 50 ng/mL recombinant protein) is “the only osteoblast-secreted molecule able to upregulate IDO1 expression”. In data set [10], the “IDO1 expression in PDX-isolated human cells” value is recorded as “upregulated only in response to SAA1 in the PDX AML-isolated human cells” and the “proliferation of human cells from CD34+ healthy injected mice” value is recorded as “unresponsive”. The “proliferation of patient-derived cells from AML-injected mice” value in data set [10] (versus vehicle) is “high proliferative activity”. Besides, in data set [11], the “Ido1 expression in WEHI-3B cells” value is reported as “able to upregulate Ido1 expression in WEHI-3B cells with a magnitude similar to SAA3”. Besides, the “AHR target gene expression in human AML and MDS cell lines” value in [12] is listed as “upregulated most of the main AHR target genes”. Moreover, the “proliferative rate of leukemic blasts (EdU+ cells, S-phase)” value in data set [13] (SAA1 100 μg/kg i.v., 2- and 8-day treatments) was “maintained and prominent increase in the proliferative rate of leukemic blasts”. In addition, in [13] (setting [14]), the “G0–G1 cells of leukemic blasts” value is on record as “decrease” and the “G2–M phase of leukemic blasts” value is “unvarying”. The “increase in AML burden in the BM” value in [13] (SAA1 i.v., completion of the 8-day treatment) is 1.5 fold.

B2: SAA3: recombinant mouse SAA3 (Cusabio), murine ortholog of SAA1 (protein, UniProt P04918 19-122, looked up)
Serum amyloid A-3 protein: QRWVQFMKEAGQGSRDMWRAYSDMKKANWKNSDKYFHARGNYDAARRGPGGAWAAKVISDAREAVQKFTGHGAEDSRADQFANEWGRSGKDPNHFRPAGLPKRY
Consider B2, for which the “proliferation of mouse AML cell line” value in the data set with WEHI-3B cells is given as “increased proliferation”. The “Ido1 expression in WEHI-3B cells” value in data set [11] is “upregulated Ido1 expression”.
